The text below walks through data of patent US7666307B2, “Particle size reduction of bioactive compounds” (K.U. Leuven Research & Development, priority 2003, dated 2010).

The conditions of data set [1]: cited from earlier work.
Data set [2] can be described thus: Dissolution test of loperamide samples, USP 24 paddle method, HPLC. The class given is physicochemical. The settings on record: 37 °C, paddle 100 rpm. The procedure:
Four different samples containing loperamide (commercially available from Janssen Pharmaceutica, Beerse, Belgium) were prepared and their dissolution profiles were measured. 1 g/l of loperamide and 10 g/l of Aerosil 380 (a silicate commercially available from Degussa, Dusseldorf, Germany) were mixed with bi-distilled water in a mortar. An untreated sample was prepared by fast solidification of part of this suspension in a pre-cooled ball that was kept in liquid nitrogen followed by freeze-drying. […]
Dissolution experiments were performed in a SR8 PLUS Hanson dissolution test station (commercially available from Chatsworth, United States) while using the USP 24 method (paddle method, 100 rpm). […] The corresponding concentrations were determined from the calibration curve with HPLC.
The HPLC system used for this determination consisted of LiChroGraph® L-7100 HPLC pump, an auto-sampler model L-7200 equipped with a 100 μl loop, a UV detector model L-7400 set at 220 nm, and an Interface D-7000, all from commercially available from Merck-Hitachi (Darmstadt, Germany). UV signals were monitored and peaks were integrated using the D-7000 HSM software. […]

In the case of `C#C[C@]1(O)CC[C@H]2[C@@H]3CCC4=Cc5oncc5C[C@]4(C)[C@H]3CC[C@@]21C` [danazol], the “size to which 10% of the particles are reduced” value in data set [1] (dispersion refined by electric field, U.S. Pat. No. 5,503,723) is reported as 180 nm.

In the case of `CCCCNc1ccc(C(=O)OCCN(C)C)cc1` [tetracaine], the average particle diameter in data set [1] (aqueous nanosuspensions, U.S. Pat. No. 5,858,410) is listed as 91 nm.

Take `CN(C)C(=O)C(CCN1CCC(O)(c2ccc(Cl)cc2)CC1)(c1ccccc1)c1ccccc1` [loperamide]: the “dissolution rate versus corresponding untreated sample” value in data set [2] (magnetic treatment in the presence of a silicate (Aerosil)) and in data set [2] (magnetic treatment in the presence of a surfactant (Tween 80)) was “significantly increased” each time.
